Reference: PMC6270258, “Diosgenone Synthesis, Anti-Malarial Activity and QSAR of Analogues of This Natural Product” (Molecules, 2013)
Where two headings read alike, the source gives them in different places.

How the values were obtained:
[1] = system: Plasmodium falciparum FCB-2 (chloroquine-resistant) strain; test: In vitro antiplasmodial activity, [3H]hypoxanthine incorporation, FCB-2 strain; format: cell-based; details: for IC50: 48 h, P. falciparum FCB-2 chloroquine-resistant strain, read-out: IC50 μM ± SD FCB-2; for RI (resistance index): IC50 FCB-2 (resistant strain)/IC50 NF-54 (sensitive strain)
Protocol: (§1) A 10 mg/mL stock solution was prepared. […] A 50 μL sample was extracted from this solution and adjusted to 1,000 μL with RPMI-1640 without hypoxanthine until a final 500 μg/mL concentration was reached. The P. falciparum FcB-2 (Colombia) and NF54 (The Netherlands) strains were used for assessing anti-malarial activity.
(§2) Trager and Jensen’s method was used for culturing strains [24, 25]. The methods described by Desjardins et al. [26] were used for evaluating the structural analogs’ in vitro antiplasmodial activity, with some modifications. […] 1.0 µCi/mL of [3H] hypoxanthine (MP Biomedicals, Santa Ana, CA, USA) was added to each well and the plates were then incubated for 48 h at 37 °C in 5% CO2, 5% O2 in a balanced N2 atmosphere. Parasite DNA was harvested and radioactivity was determined by automatic TDCR liquid scintillation counter plate (Chameleon, Hidex Oy, Finland). Experiments were repeated twice with two or three replicates each. A nonlinear regression sigmoidal dose-response (variable slope) model was used to estimate concentration inhibiting 50% growth (IC50) values for each derivative.

[2] = system: Plasmodium falciparum NF-54 strain; test: In vitro antiplasmodial activity, [3H]hypoxanthine incorporation, NF-54 strain; format: cell-based; details: P. falciparum NF-54 chloroquine-sensitive strain, 48 h, read-out: IC50 μM ± SD NF-54
Protocol: as §1, §2

[3] = Cytotoxicity, MTT colorimetric test; format: cell-based, human; details: human
Protocol: (§3) Steroidal derivatives’ cytotoxicity regarding the HepG2-A16 cell line was evaluated by colorimetric test using 3-(4,5-dimethylthiazolyl-2)-2,5-diphenyltetrazolium bromide (MTT), as described by Mosmann [28]. […] An aliquot of each derivative dilution (100 μL, 1,000, 100, 10 and 1 μg/mL) was then added to the wells in triplicate. […] The DMSO diluent agent was evaluated in complete medium and negative controls (untreated cells) were included. Absorbance was measured at 550 nm and statistical Prism software version 5.0 (GraphPad Software Inc., La Jolla, CA, USA) was used for calculating toxic concentration (CC50). Amphotericin B was used as positive control in this assay.

[4] = system: Plasmodium berghei (ANKA strain); test: Peters' 4-day suppressive test in P. berghei-infected mice; format: in vivo, Plasmodium berghei in Balb/C mice; details: 100 mg/kg oral
Protocol: Antimalarial activity was expressed as the percentage of parasite multiplication inhibition.
Antimalarial activity was assessed in vivo in the P. berghei rodent malaria model according to Peters’ 4-day suppressive test in P. berghei-infected (ANKA strain), 5–6 week-old Balb/C mice (males and females) weighing 23 ± 5 g; parasitemia kinetics were evaluated following treatment [2]. […] The donor mice were anesthetized with a 5 mg/kg xylazine and 50 mg/kg ketamine cocktail; blood was then collected via intracardiac route and 100 uL of 5 × 10^6 P. berghei ANKA-parasitised parasitized erythrocytes per experimental mouse were inoculated. Mouse infection was checked one day later by thin smear blood test and Giemsa staining.

[5] = system: Plasmodium falciparum FCB-2 (chloroquine-resistant) strain; design: method as in doi:10.1016/S0040-4020(98)00632-2, PMID 11807967; details: reported earlier; cited from earlier work
[6] = system: HepG2-A16 human hepatoma cells; test: Cytotoxicity, MTT colorimetric test; format: cell-based; details: CC50 HepG2/IC50 parasite FCB-2
Protocol: as §3

Structure (SMILES) | IC50 ([1]; Plasmodium falciparum) [µM] | IC50 [2] [µM] | CC50 at 48 h [3] [µM] | in vivo effect on parasites (in words) [4] | parasitaemia (parasitized erythrocytes) ([4]; fifth day post treatment, vehicle controls 36.0%) [%] | antiplasmodial activity against FcB-2 chloroquine-resistant strains (in words) [5] | RI (resistance index) [1] | IC50 [1] [µM] | SI (selectivity index) [6] | antiplasmodial activity (in words) ([1]; P. falciparum FCB-2 and NF-54 strains, compared to diosgenone or parent) | reduction in parasitemia ([4]; 4 daily doses) [%] | melting point [°C]
C[C@@H]1CC[C@@]2(OC1)O[C@H]1C[C@H]3[C@@H]4CCC5=CC(=O)CC[C@]5(C)[C@H]4CC[C@]3(C)[C@H]1[C@@H]2C [Compound 2, (25R)-4-Spirosten-3-one] | 27.9 ± 5.5 | 35.4 ± 2.2 | 265 | no decrease in the amount of parasites | 50.0 | have antiplasmodial activity |  |  |  |  |  | 
CC(=O)O[C@H]1CC2C3CCC4=CC(=O)CC[C@]4(C)C3CC[C@]2(C)[C@H]1[C@H](C)C(=O)CC[C@@H](C)CO (stereo partly drawn) [Compound 3] | 21.4 | 33 ± 0.8 | 60 |  |  | have antiplasmodial activity | 0.6 | 21.35 ± 0.2 | 2.8 |  |  | 
C[C@@H](CO)CCC(=O)[C@@H](C)[C@H]1[C@@H](O)CC2C3CCC4=CC(=O)CC[C@]4(C)C3CC[C@@]21C (stereo partly drawn) [Compound 4] | 223 ± 12.3 | 248 ± 5.3 | 2150 |  |  | have antiplasmodial activity | 0.9 |  | 9.6 |  |  | 
C[C@@H]1CC[C@@]2(OC1)O[C@H]1C[C@H]3[C@@H]4CC(=O)C5=CC(=O)CC[C@]5(C)[C@H]4CC[C@]3(C)[C@H]1[C@@H]2C [Compound 18, (25R)-4-Spirosten-3,6-dione] | 11.3 ± 1.6 | 9.8 ± 1 | 192 |  |  |  | 1.2 |  | 16.9 | more active than diosgenone | 35.0 | 200 to 202
